Test results published in PMC3026091 (Antiviral research, 2010).

How the values were obtained:
[1] = target: T1, Bovine pancreatic trypsin (Bos taurus, UniProt P00760); test: Steady-state kinetics of inhibitors of trypsin; format: biochemical; details: BOC-GRR-AMC fluorogenic substrate; for Mechanism (trypsin): mechanism of trypsin inhibition
T1 sequence (P00760 24-246): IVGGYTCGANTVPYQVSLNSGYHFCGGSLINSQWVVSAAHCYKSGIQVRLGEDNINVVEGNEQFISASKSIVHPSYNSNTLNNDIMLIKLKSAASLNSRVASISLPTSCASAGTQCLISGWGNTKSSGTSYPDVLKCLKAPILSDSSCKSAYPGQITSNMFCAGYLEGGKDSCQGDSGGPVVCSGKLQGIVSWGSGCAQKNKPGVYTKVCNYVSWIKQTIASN

DEN2V NS2B-NS3pro = format: biochemical, dengue 2 virus (strain TSV01); details: mechanism of inhibition of DEN2V NS2B-NS3pro, Dynafit model selection
[2] = target: T1, Bovine pancreatic trypsin; test: Trypsin inhibition assay with chromogenic BAPNA substrate; format: biochemical; details: analog 100 µM, trypsin 60 µM, BAPNA 500 µM; data not shown

| SMILES | Mechanism (trypsin) [1] | Mechanism (DEN2V NS2B-NS3pro) | Inhibition of trypsin cleavage of the chromogenic substrate BAPNA [2] | Ki ([1]; read-out: Ki2 trypsin, 50 nM trypsin) |
| --- | --- | --- | --- | --- |
| N=C(N)c1ccccc1 [Benzamidine, reference compound] | Competitive | – | – | – |
| O=C1c2c(O)ccc([N+](=O)[O-])c2C(=O)c2c([N+](=O)[O-])ccc(O)c21 [ARDP0006] | uncompetitive trypsin inhibitor | competitive inhibition model | inhibited trypsin cleavage of the fluorogenic substrate but not the chromogenic substrate | 13 ± 0.1 µM |
